# Measurements reported in patent US20240208998A1, “COMPOUNDS FOR USE IN THE TREATMENT OF HYPERPROLIFERATIVE DISORDERS” (FUNDACIÓ PRIVADA INSTITUT D'INVESTIGACIÓ ONCOLÓGICA DE VALL …, priority 2021, published 2024).
# pEC50, pKd: −log10 of the molar value.
# Assays:
# A375 (melanoma) = assay: Antiproliferative activity on other tumour cell lines (CellTiter-Glo): A375; format: cell-based; details: Homo sapiens, A-375; A375, 72 h of treatment
# Method: (§1) Other human adherent cancer cell lines were cultured in their corresponding cell medium (as specified in Table 4) supplemented with 10% FBS (v/v) and 1% P/S (v/v). Twenty-four hours prior to treatment with the compounds to be tested (Examples 1, 12 and 21), the cells were seeded in 96-well plates at different densities depending of the cell line (as specified in Table 4).
# (§2) Depending on the cell line, a 50, 125 or 250 μM solution of the compounds of examples 1, 12 and 21 were prepared in complete medium, and then serially diluted (1:2) (Table 5). A solution of complete medium with DMSO was used as a vehicle control.
# (§3) Fifty microliters of each serially diluted compound solution was added by medium replacement in two wells (by duplicate). After 48 h of treatment, 50 μL of fresh 2X serially diluted compound solution was added to the corresponding wells of the plate (100 μL of final volume/well). After twenty-four additional hours (a total of 72 h of treatment), an equal volume (100 μL) of CellTiter-Glo Reagent (Promega) was added to each well, plates were shaken during 2 min and incubated at rt for 10 min. Luminescence was recorded using a Spark multimode microplate reader and an integration time of 1 s per well.
# MDA-MB-468 (breast) = assay: Antiproliferative activity on other tumour cell lines (CellTiter-Glo): MDA-MB-468; format: cell-based; details: Homo sapiens, MD-MB-468, 72 h of treatment
# Method: as §1, §2, §3
# T98G (glioblastoma) = assay: Antiproliferative activity on other tumour cell lines (CellTiter-Glo): T98G; format: cell-based; details: Homo sapiens, 72 h of treatment
# Method: as §1, §2, §3
# Hop62 (lung) = assay: Antiproliferative activity on other tumour cell lines (CellTiter-Glo): Hop62; format: cell-based; details: Homo sapiens, HOP-62; Hop62, 72 h of treatment
# Method: as §1, §2, §3
# HL60 cell line = assay: Antiproliferative activity on HL60 cell line (CellTiter-Glo); format: cell-based; details: Homo sapiens, HL-60; HL60, 72 h of treatment
# Method: The human leukaemic cell line HL60 was grown in suspension in RPMI 1640 medium containing 10% (v/v) FBS and 1% (v/v) P/S (Life Technologies). […] Leukaemia cells were suspended at a density of 2×10^5 cells/mL in complete RPMI 1640 medium and 25 μL were seeded in each well (5×10^3 final total cells/well). A 10 μM solution of the compounds of examples 1, 12 and 21, and a 25 μM solution of all other compounds were prepared in complete medium, and then serially diluted (1:2) (as specified in Table 3 below). A solution of complete medium with DMSO was used as a vehicle control.
# Twenty-five microliters of each serially diluted compound solution were added to the corresponding wells of the plate (50 μL of final volume/well). After 48 h of treatment, 50 μL of fresh 2X serially diluted compound solution was added to their corresponding wells (100 μL of final volume/well). After twenty-four additional hours, an equal volume (100 μL) of CellTiter-Glo Reagent (Promega) was added to each well, plates were shaken during 2 min and incubated at rt for 10 min. Luminescence was recorded using a Spark multimode microplate reader and an integration time of 1 s per well.
# human TET2 construct = human TET2 construct (Homo sapiens, UniProt Q6N021, A1837G/A1840G/D1704G/D1842G/DEL1471-1702/DEL1708-1833/E1841G/F1706G/N1843S/Q1834G/V1836G); assay: Determination of TET2 binding by Surface Plasmon Resonance; details: SPR, Biacore T200, 25° C., steady state fit to single site interaction model
# Method: The human methylcytosine dioxygenase TET2 construct used (1129-2002 with residues 1471-1843 replaced by a 15-residue GS-linker) was expressed in a pET-28a(+)psumo vector with kanamycin resistance and an N-terminal His6 tag, and cloned in Rosetta D3 Escherichia coli competent cells. Transformed cells were cultured overnight in 10 mL of LB media supplied with kanamycin (50 μg/mL), then scaled to 1 L LB medium supplied with kanamycin (50 μg/mL) and grown at 37° C. Once the optical density (OD600) achieved 0.8, protein expression was induced with 0.4 mM isopropyl-β-thiogalactopyranoside (IPTG) overnight at 18° C. Cells were harvested by centrifugation (8,000 rpm, 4° C., 30 min) and the pellet obtained was resuspended in 15 mL of buffer A (50 mM Hepes, 150 mM NaCl, 30 mM imidazole, 2 mM β-mercaptoethanol (pH 8.0) supplemented with Pierce protease inhibitor cocktail (ThermoFisher Scientific)) and lysed by sonication (1 min 40 s: 10 cycles×10 s ON, 30 s OFF, A=35%, T=19° C.) followed by two consecutive centrifugations (8,000 rpm, 4° C., 30 min) to clarify the lysate.
# The TET2 protein was purified using an AKTA Start system (GE Healthcare, Uppsala, Sweden) by two-step purification procedure: one His-affinity chromatography followed by a size exclusion chromatography. First, the protein fraction obtained during the lysis (supernatant) was applied to a 5 mL HisTrap HP column (GE Healthcare), washed with buffer A (50 mM Hepes, 150 mM NaCl, 30 mM imidazole, 2 mM […] (pH 8.0)) and the bound protein was eluted with buffer B (50 mM Hepes, 150 mM NaCl, 250 mM imidazole, 2 mM β-mercaptoethanol (pH 8.0)). The eluted protein-containing fractions were pooled and concentrated up to 4 mL for the last purification step: a size exclusion chromatography (HiPrep 16/60 Sephacryl S-100 HR) in 50 mM Hepes, 150 mM NaCl, 2 mM β-mercaptoethanol (pH 8.0). Finally, the mass and purity of the protein were verified by SDS-electrophoresis and mass spectrometry.
# The binding of compounds of the examples was determined by Surface Plasmon Resonance (SPR) using a Biacore T200 SPR biosensor instrument (GE Healthcare, Uppsala, Sweden) at 25° C. The human TET2 construct was immobilized on a CM5 sensor chip using a standard covalent immobilization via amine coupling following the activation of the carboxymethyl dextran matrix of the sensor chip (injection of a solution containing 0.1 M N-hydroxysuccinimide and 0.4 M 1-ethyl-3-[3-(dimethylamino)propyl]carbodiimide hydrochloride at a flow rate of 15 μL/min for 7 min). The protein immobilization was achieved after the injection of 5 μg/mL TET2 in 10 mM sodium acetate (pH 4.0) at a flow rate of 5 μL/min. Unreacted activated groups of the dextran matrix were deactivated by injection of 1 M ethanolamine hydrochloride for 7 min at a flow rate of 15 μL/min. The corresponding matrix activation and protein immobilization were performed using as a running buffer a phosphate buffered saline solution (1.05× PBS: 10 mM phosphate, pH 7.4, 150 mM NaCl). The screened compounds were prepared in a 20 mM stock solution in DMSO and diluted with 1.05× PBS to achieve a final 5% (v/v) DMSO concentration. The running buffer of the interaction assays consisted of 1×PBS, 5% (v/v) DMSO. The flow rate used for the screening was 60 μL/min and the ligand association and dissociation times set were 60 s and 120 s, respectively.
# For data analysis the software used was the Biacore T200 Evaluation software. Different corrections were applied. First, the nonspecific binding to the chip surface and the baseline drift were corrected subtracting the signals of a reference surface (where the immobilization procedure was carried out without proteins) to the signals obtained on the TET2 surface. Second, a series of solvent standards (solvent correction) were introduced to remove the differences derived from the DMSO. Finally, the background was corrected subtracting blank injections (blank subtraction) to the injected compound signals.
# MCF7 (breast) = assay: Antiproliferative activity on other tumour cell lines (CellTiter-Glo): MCF7; format: cell-based; details: Homo sapiens; MCF7, 72 h of treatment
# Method: as §1, §2, §3
# HCT116 (colon) = assay: Antiproliferative activity on other tumour cell lines (CellTiter-Glo): HCT116; format: cell-based; details: Homo sapiens; HCT 116, 72 h of treatment
# Method: as §1, §2, §3
# LN229 (glioblastoma) = assay: Antiproliferative activity on other tumour cell lines (CellTiter-Glo): LN229; format: cell-based; details: Homo sapiens, LN-229; LN229, 72 h of treatment
# Method: as §1, §2, §3
SMILES,pEC50 (A375 (melanoma)),pEC50 (MDA-MB-468 (breast)),pEC50 (T98G (glioblastoma)),melting point [°C],pEC50 (Hop62 (lung)),pEC50 (HL60 cell line),pKd (human TET2 construct),pEC50 (MCF7 (breast)),pEC50 (HCT116 (colon)),pEC50 (LN229 (glioblastoma))
"Cc1[nH]c2ccccc2c1-c1csc(NC(=O)Cc2cn3ccsc3n2)n1 [Example 1, 2-(imidazo[2,1-b]thiazol-6-yl)-N-[4-(2-methyl-1H-indol-3-yl)thiazol-2-yl]acetamide]",5.85,4.80,4.13,210 to 212,4.40,6.95,4.80,4.84,4.92,5.48
"Cc1[nH]c2ccccc2c1-c1coc(NC(=O)Cc2cn3ccsc3n2)n1 [Example 5, 2-(imidazo[2,1-b]thiazol-6-yl)-N-[4-(2-methyl-1H-indol-3-yl)oxazol-2-yl]acetamide]",,,,122 to 124,,4.92,4.68,,,
